Data reported in the NIST ThermoML archive (doi:10.1021/je025621h).
± gives the expanded uncertainty stated by the source.

Conditions: Liquid

C1CCCCC1 [cyclohexane]
vapor or sublimation pressure (302.92 K): 16.06 ± 0.037 kPa
vapor or sublimation pressure (304.19 K): 16.95 ± 0.037 kPa
vapor or sublimation pressure (306.91 K): 19.05 ± 0.038 kPa
vapor or sublimation pressure (308.27 K): 20.16 ± 0.038 kPa
vapor or sublimation pressure (309.9 K): 21.56 ± 0.039 kPa
vapor or sublimation pressure (313.16 K): 24.61 ± 0.04 kPa
vapor or sublimation pressure (318.19 K): 30.03 ± 0.042 kPa
vapor or sublimation pressure (323.14 K): 36.23 ± 0.044 kPa
vapor or sublimation pressure (328.16 K): 43.51 ± 0.047 kPa
vapor or sublimation pressure (331.9 K): 49.68 ± 0.05 kPa
vapor or sublimation pressure (333.16 K): 51.9 ± 0.051 kPa
vapor or sublimation pressure (333.17 K): 51.9 ± 0.051 kPa
vapor or sublimation pressure (338.16 K): 61.56 ± 0.054 kPa
vapor or sublimation pressure (343.16 K): 72.53 ± 0.058 kPa
vapor or sublimation pressure (345.42 K): 77.94 ± 0.061 kPa
vapor or sublimation pressure (348.05 K): 84.73 ± 0.063 kPa

CCO [ethanol]
vapor or sublimation pressure (312.17 K): 17 ± 0.037 kPa
vapor or sublimation pressure (313.43 K): 18.15 ± 0.038 kPa
vapor or sublimation pressure (318.15 K): 23.07 ± 0.04 kPa
vapor or sublimation pressure (318.24 K): 23.18 ± 0.04 kPa
vapor or sublimation pressure (320.87 K): 26.39 ± 0.041 kPa
vapor or sublimation pressure (323.15 K): 29.48 ± 0.043 kPa
vapor or sublimation pressure (326.13 K): 34 ± 0.044 kPa
vapor or sublimation pressure (326.16 K): 34.02 ± 0.044 kPa
vapor or sublimation pressure (328.14 K): 37.34 ± 0.046 kPa
vapor or sublimation pressure (328.17 K): 37.39 ± 0.046 kPa
vapor or sublimation pressure (330.65 K): 41.9 ± 0.048 kPa
vapor or sublimation pressure (333.16 K): 46.94 ± 0.05 kPa
vapor or sublimation pressure (336.1 K): 53.47 ± 0.053 kPa
vapor or sublimation pressure (336.14 K): 53.56 ± 0.053 kPa
vapor or sublimation pressure (338.16 K): 58.48 ± 0.056 kPa
vapor or sublimation pressure (343.15 K): 72.3 ± 0.061 kPa
vapor or sublimation pressure (348.14 K): 88.77 ± 0.068 kPa
vapor or sublimation pressure (351.38 K): 101.11 ± 0.069 kPa
vapor or sublimation pressure (351.42 K): 101.23 ± 0.069 kPa

O [water]
vapor or sublimation pressure (327.13 K): 15 ± 0.036 kPa
vapor or sublimation pressure (328.16 K): 15.75 ± 0.037 kPa
vapor or sublimation pressure (330.78 K): 17.85 ± 0.037 kPa
vapor or sublimation pressure (333.15 K): 19.94 ± 0.038 kPa
vapor or sublimation pressure (335.82 K): 22.53 ± 0.039 kPa
vapor or sublimation pressure (338.15 K): 25.02 ± 0.04 kPa
vapor or sublimation pressure (340.67 K): 27.98 ± 0.042 kPa
vapor or sublimation pressure (343.16 K): 31.21 ± 0.043 kPa
vapor or sublimation pressure (346.13 K): 35.42 ± 0.044 kPa
vapor or sublimation pressure (348.14 K): 38.55 ± 0.046 kPa
vapor or sublimation pressure (353.14 K): 47.36 ± 0.05 kPa
vapor or sublimation pressure (358.14 K): 57.79 ± 0.053 kPa
